According to patent US20110086759A1, “CHEMICAL COMPOUNDS” (SYNGENTA CROP PROTECTION, INC., priority 2007, published 2011):

Assays:
Assay type in all cases: in vivo
Setaria faberi (SETFA) [1] = test: Post-emergence biological efficacy, glasshouse pot test; conditions: 312 h, post-emergence, 1,000 g/ha, evaluated after 13 days (100=total damage; 0=no damage), read-out: Percentage damage caused to weed species, SETFA
How it was run: (§1)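 Pot-grown weeds were sprayed 8 days after sowing with test compound in acetone/water (50:50) with 0.5% Tween 20 at 1000 or 250 g/ha. Glasshouse at 24/16° C day/night, 14 h light, 65% humidity. Damage scored 0-100 (100 = total damage) after 13 days.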

Solanum nigrum (SOLNI) [2] = test: as above; conditions: 312 h, post-emergence, 1,000 g/ha, evaluated after 13 days (100=total damage; 0=no damage), read-out: Percentage damage caused to weed species, SOLNI
How it was run: as §1

[3] = tested on: Echinochloa crus-galli (ECHCG); test: as above; conditions: 312 h, post-emergence, 1,000 g/ha, evaluated after 13 days (100=total damage; 0=no damage), read-out: Percentage damage caused to weed species, ECHCG
How it was run: as §1

[4] = tested on: Alopecurus myosuroides (ALOMY); test: as above; conditions: 312 h, post-emergence, 1,000 g/ha, evaluated after 13 days (100=total damage; 0=no damage), read-out: Percentage damage caused to weed species, ALOMY
How it was run: as §1

[5] = tested on: Ipomea hederaceae (IPOHE); test: as above; conditions: Ipomoea hederacea, 312 h; post-emergence, 1,000 g/ha, evaluated after 13 days (100=total damage; 0=no damage); read-out: Percentage damage caused to weed species, IPOHE
How it was run: as §1

[6] = tested on: Amaranthus retoflexus (AMARE); test: as above; conditions: Amaranthus retroflexus, 312 h; post-emergence, 1,000 g/ha, evaluated after 13 days (100=total damage; 0=no damage); read-out: Percentage damage caused to weed species, AMARE
How it was run: as §1

Setaria faberi (SETFA) [7] = test: Pre-emergence biological efficacy, glasshouse pot test; conditions: 312 h, pre-emergence, 1,000 g/ha, evaluated after 13 days (100=total damage; 0=no damage), read-out: Percentage damage SETFA
How it was run: (§2)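 One day after sowing in standard soil, pots were sprayed with compound in acetone/water (50:50) with 0.5% Tween 20, at 1000 or 250 g/ha. Plants grew at 24/16° C day/night, 14 h light, 65% humidity. Damage was scored after 13 days (0 = none, 100 = total).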

Solanum nigrum (SOLNI) [8] = test: as above; conditions: 312 h, pre-emergence, 1,000 g/ha, evaluated after 13 days (100=total damage; 0=no damage), read-out: Percentage damage SOLNI
How it was run: as §2

[9] = tested on: Echinochloa crus-galli (ECHCG); test: as above; conditions: 312 h, pre-emergence, 1,000 g/ha, evaluated after 13 days (100=total damage; 0=no damage), read-out: Percentage damage ECHCG
How it was run: as §2

[10] = tested on: Alopecurus myosuroides (ALOMY); test: as above; conditions: 312 h, pre-emergence, 1,000 g/ha, evaluated after 13 days (100=total damage; 0=no damage), read-out: Percentage damage ALOMY
How it was run: as §2

[11] = tested on: Ipomea hederaceae (IPOHE); test: as above; conditions: Ipomoea hederacea, 312 h; pre-emergence, 1,000 g/ha, evaluated after 13 days (100=total damage; 0=no damage); read-out: Percentage damage IPOHE
How it was run: as §2

[12] = tested on: Amaranthus retoflexus (AMARE); test: as above; conditions: Amaranthus retroflexus, 312 h; pre-emergence, 1,000 g/ha, evaluated after 13 days (100=total damage; 0=no damage); read-out: Percentage damage AMARE
How it was run: as §2

Row | Compound | pest or weed control at 1000 g/ha (Setaria faberi (SETFA) [1]) [%] | pest or weed control at 1000 g/ha (Solanum nigrum (SOLNI) [2]) [%] | pest or weed control at 1000 g/ha [3] [%] | pest or weed control at 1000 g/ha [4] [%] | pest or weed control at 1000 g/ha [5] [%] | pest or weed control at 1000 g/ha [6] [%] | pest or weed control at 1000 g/ha (Setaria faberi (SETFA) [7]) [%] | pest or weed control at 1000 g/ha (Solanum nigrum (SOLNI) [8]) [%] | pest or weed control at 1000 g/ha [9] [%] | pest or weed control at 1000 g/ha [10] [%] | pest or weed control at 1000 g/ha [11] [%] | pest or weed control at 1000 g/ha [12] [%]
1 | COC(=O)c1nc(C2CC2)nc(NCc2ccccn2)c1Cl [Compound 4-151, 5-Chloro-2-cyclopropyl-6-methoxycarbonyl-4-(pyrid-2-yl-methylamino)-pyrimidine] | 80 | 80 | 80 | 60 | 80 | 100 | 50 | 90 | 60 | 40 | 90 | 100
2 | COC(=O)c1nc(C2CC2)nc(NCc2ncccc2Cl)c1Cl [Compound 4-152, 5-Chloro-4-(3-chloropyrid-2-ylmethylamino)-2-cyclopropyl-6-methoxycarbonyl-pyrimidine] | 90 | 90 | 80 | 50 | 100 | 100 | 40 | 80 | 70 | 20 | 100 | 70
3 | COC(=O)c1nc(C2CC2)nc(NCc2ncccc2C)c1Cl [Compound 4-153, 5-Chloro-2-cyclopropyl-6-methoxycarbonyl-4-(3-methylpyrid-2-ylmethylamino)-pyrimidine] | 90 | 100 | 80 | 70 | 100 | 100 | 60 | 100 | 60 | 50 | 100 | 100
4 | COC(=O)c1nc(C2CC2)nc(NCc2ncc(C(F)(F)F)cc2Cl)c1Cl [Compound 4-155, 5-Chloro-4-(3-chloro-5-trifluoromethylpyrid-2-ylmethylamino)-2-cyclopropyl-6-methoxycarbonyl-pyrimidine] | 70 | 90 | 70 | 30 | 90 | 100 | 20 | 70 | 80 | 20 | 90 | 90
5 | COC(=O)c1nc(C2CC2)nc(NCc2cccnc2)c1Cl [Compound 4-156, 5-Chloro-2-cyclopropyl-6-methoxycarbonyl-4-(pyrid-3-ylmethyl-amino)pyrimidine] | 70 | 90 | 50 | 30 | 70 | 100 | 0 | 30 | 0 | 0 | 80 | 50
6 | COC(=O)c1nc(C2CC2)nc(NCc2ccc(C(F)(F)F)nc2)c1Cl [Compound 4-159, 5-Chloro-2-cyclopropyl-6-methoxycarbonyl-4-(2-trifluoromethyl-pyrid-5-yl-methyl-amino)-pyrimidine] | 70 | 80 | 80 | 30 | 80 | 90 | 0 | 20 | 30 | 10 | 70 | 0
7 | COC(=O)c1nc(C2CC2)nc(NCc2ccncc2)c1Cl [Compound 4-160, 5-Chloro-2-cyclopropyl-6-methoxycarbonyl-4-(pyrid-4-yl-methyl-amino)pyrimidine] | 80 | 80 | 70 | 40 | 90 | 100 | 50 | 90 | 60 | 20 | 100 | 70
8 | COC(=O)c1nc(C2CC2)nc(NCc2cc3cc(Br)ccc3o2)c1Cl [Compound 4-164, 4-(5-Bromo-benzofuran-2-yl)methylamino-5-chloro-2-cyclopropyl-6-methoxycarbonyl-pyrimidine] | 70 | 100 | 60 | 30 | 80 | 100 | 30 | 50 | 30 | 30 | 100 | 50
9 | COC(=O)c1nc(C2CC2)nc(NCc2nc3ccccc3s2)c1Cl [Compound 4-168, 4-(Benzothiazol-2-ylmethylamino)-5-chloro-2-cyclopropyl-6-methoxycarbonyl-pyrimidine] | 60 | 70 | 40 | 30 | 60 | 90 | 0 | 40 | 20 | 20 | 50 | 20
10 | COC(=O)c1nc(C2CC2)nc(NC(C)C2CC2)c1Cl (stereo not drawn) [Compound 4-171, 5-Chloro-2-cyclopropyl-4-(1-cyclopropylethyl-amino)-6-methoxy-carbonylpyrimidine] | 90 | 90 | 60 | 40 | 90 | 100 | 40 | 40 | 70 | 30 | 100 | 90
11 | COC(=O)c1nc(C2CC2)nc(NC(C)c2ccccc2)c1Cl (stereo not drawn) [Compound 4-174, 5-Chloro-2-cyclopropyl-6-methoxycarbonyl-4-(1-phenylethyl-amino)pyrimidine] | 90 | 90 | 90 | 30 | 100 | 100 | 20 | 70 | 30 | 20 | 50 | 80
